Paper PMC10893631, “Receptor-based pharmacophore modeling, molecular docking, synthesis and biological evaluation of novel VEGFR-2, FGFR-1, and BRAF multi-kinase inhibitors” (BMC Chemistry, 2024)

Tests used:
Experiment in all cases: NCI SRB growth inhibition (single dose 10 µM / five-dose)
Assay type in all cases: cell-based, human
SN12C = details: Homo sapiens; for GI50: SN12C, Renal cancer, five-dose
Summary of the method: (§1)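 SRB protein stain of fixed cells; compounds tested at one dose (10 µM) or five serial dilutions (10-fold or ½ log), diluted from DMSO stock. Cells plated 24 h before dosing, with a time-zero plate fixed in TCA. Percent growth derived from Tz, control and test absorbances; TGI taken where Ti = Tz.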

M14 = details: Homo sapiens; for inhibition at 10 µM: M14 (Melanoma), read-out: GI%; for GI50: M14, Melanoma, five-dose
Summary of the method: as §1

SW-620 = details: Homo sapiens; for inhibition at 10 µM: SW-620 (Colon cancer), read-out: GI%; for GI50: SW-620, Colon cancer, five-dose
Summary of the method: as §1

SNB-19 = details: Homo sapiens; for inhibition at 10 µM: SNB-19 (CNS cancer), read-out: GI%; for GI50: SNB-19, CNS cancer, five-dose
Summary of the method: as §1

MCF7 = details: Homo sapiens; for inhibition at 10 µM: MCF7 (Breast cancer), read-out: GI%; for GI50: MCF7, Breast cancer, five-dose
Summary of the method: as §1

NCI-H23 = details: Homo sapiens; for inhibition at 10 µM: NCI-H23 (Non-small cell lung cancer), read-out: GI%; for GI50: NCI-H23, Non-small cell lung cancer, five-dose
Summary of the method: as §1

NCI-H226 = details: Homo sapiens; for inhibition at 10 µM: NCI-H226 (Non-small cell lung cancer), read-out: GI%; for GI50: NCI-H226, Non-small cell lung cancer, five-dose
Summary of the method: as §1

OVCAR-5 = details: Homo sapiens; for inhibition at 10 µM: OVCAR-5 (Ovarian cancer), read-out: GI%; for GI50: OVCAR-5, Ovarian cancer, five-dose
Summary of the method: as §1

PC-3 = details: Homo sapiens; for inhibition at 10 µM: PC-3 (Prostate cancer), read-out: GI%; for GI50: PC-3, Prostate cancer, five-dose
Summary of the method: as §1

NCI-H522 = details: Homo sapiens; for inhibition at 10 µM: NCI-H522 (Non-small cell lung cancer), read-out: GI%; for GI50: NCI-H522, Non-small cell lung cancer, five-dose
Summary of the method: as §1

SR = details: Homo sapiens; for inhibition at 10 µM: SR (Leukemia), read-out: GI%; for GI50: SR, Leukemia, five-dose
Summary of the method: as §1

OVCAR-3 = details: Homo sapiens; for inhibition at 10 µM: OVCAR-3 (Ovarian cancer), read-out: GI%; for GI50: OVCAR-3, Ovarian cancer, five-dose
Summary of the method: as §1

SF-268 = details: Homo sapiens; for inhibition at 10 µM: SF-268 (CNS cancer), read-out: GI%; for GI50: SF-268, CNS cancer, five-dose
Summary of the method: as §1

TK-10 = details: Homo sapiens; for inhibition at 10 µM: TK-10 (Renal cancer), read-out: GI%; for GI50: TK-10, Renal cancer, five-dose
Summary of the method: as §1

HOP-92 = details: Homo sapiens; for inhibition at 10 µM: HOP-92 (Non-small cell lung cancer), read-out: GI%; for GI50: HOP-92, Non-small cell lung cancer, five-dose
Summary of the method: as §1

UACC-62 = details: Homo sapiens; for inhibition at 10 µM: UACC-62 (Melanoma), read-out: GI%; for GI50: UACC-62, Melanoma, five-dose
Summary of the method: as §1

HOP-62 = details: Homo sapiens; for GI50: HOP-62, Non-small cell lung cancer, five-dose
Summary of the method: as §1

MOLT-4 = details: Homo sapiens; for inhibition at 10 µM: MOLT-4 (Leukemia), read-out: GI%; for GI50: MOLT-4, Leukemia, five-dose
Summary of the method: as §1

HT29 = details: Homo sapiens, HT-29; for inhibition at 10 µM: HT29 (Colon cancer), read-out: GI%; for GI50: HT29, Colon cancer, five-dose
Summary of the method: as §1

HCC-2998 = details: Homo sapiens; for inhibition at 10 µM: HCC-2998 (Colon cancer), read-out: GI%; for GI50: HCC-2998, Colon cancer, five-dose
Summary of the method: as §1

SF-539 = details: Homo sapiens; for inhibition at 10 µM: SF-539 (CNS cancer), read-out: GI%; for GI50: SF-539, CNS cancer, five-dose
Summary of the method: as §1

U251 = details: Homo sapiens, U-251; for inhibition at 10 µM: U251 (CNS cancer), read-out: GI%; for GI50: U251, CNS cancer, five-dose
Summary of the method: as §1

EKVX = details: Homo sapiens; for inhibition at 10 µM: EKVX (Non-small cell lung cancer), read-out: GI%; for GI50: EKVX, Non-small cell lung cancer, five-dose
Summary of the method: as §1

RPMI-8226 = details: Homo sapiens; for inhibition at 10 µM: RPMI-8226 (Leukemia), read-out: GI%; for GI50: RPMI-8226, Leukemia, five-dose
Summary of the method: as §1

## COc1cc(C=NNC(=O)c2ccc3[nH]c(-c4ccc(Cl)cc4)nc3c2)cc(OC)c1OC [8u, 2-(4-Chlorophenyl)-N'-(3,4,5-trimethoxybenzylidene)-1H-benzo[d]imidazole-5-carbohydrazide]
SN12C
  GI50: 3220 nM
M14
  inhibition at 10 µM: > 100%
  GI50: 3770 nM
SW-620
  inhibition at 10 µM: > 100%
  GI50: 4400 nM
SNB-19
  inhibition at 10 µM: > 100%
  GI50: 3420 nM
MCF7
  inhibition at 10 µM: > 100%
  GI50: 660 nM
NCI-H23
  inhibition at 10 µM: > 100%
  GI50: 4720 nM
NCI-H226
  inhibition at 10 µM: > 100%
  GI50: 1310 nM
OVCAR-5
  inhibition at 10 µM: 37.4%
  GI50: 15600 nM
PC-3
  inhibition at 10 µM: > 100%
  GI50: 5730 nM
NCI-H522
  inhibition at 10 µM: > 100%
  GI50: 4900 nM
SR
  inhibition at 10 µM: > 100%
  GI50: 3760 nM
OVCAR-3
  inhibition at 10 µM: > 100%
  GI50: 2280 nM
SF-268
  inhibition at 10 µM: > 100%
  GI50: 4400 nM
TK-10
  inhibition at 10 µM: 62.6%
  GI50: 28800 nM
HOP-92
  inhibition at 10 µM: > 100%
  GI50: 5950 nM
UACC-62
  inhibition at 10 µM: > 100%
  GI50: 1240 nM
HOP-62; HOP-62 (Non-small cell lung cancer), 10 µM, read-out: GI%
  inhibition at 10 µM: > 100%
HOP-62
  GI50: 4680 nM
MOLT-4
  inhibition at 10 µM: 96%
  GI50: 3580 nM
HT29
  inhibition at 10 µM: > 100%
  GI50: 2980 nM
HCC-2998
  inhibition at 10 µM: > 100%
  GI50: 11100 nM
SF-539
  inhibition at 10 µM: > 100%
  GI50: 2020 nM
U251
  inhibition at 10 µM: > 100%
  GI50: 2590 nM
EKVX
  inhibition at 10 µM: 90.8%
  GI50: 14800 nM
RPMI-8226
  inhibition at 10 µM: > 100%
  GI50: 3210 nM

## O=C(NN=Cc1ccccc1O)c1ccc2[nH]c(-c3ccc(Cl)cc3)nc2c1 [8o, 2-(4-Chlorophenyl)-N'-(2-hydroxybenzylidene)-1H-benzo[d]imidazole-5-carbohydrazide]
SN12C; SN12C (Renal cancer), 10 µM, read-out: GI%
  inhibition at 10 µM: 59.4%
SN12C
  GI50: 3410 nM
M14
  inhibition at 10 µM: 90.9%
  GI50: 1810 nM
SW-620
  inhibition at 10 µM: > 100%
  GI50: 330 nM
SNB-19
  inhibition at 10 µM: > 100%
  GI50: 1120 nM
MCF7
  inhibition at 10 µM: 93.7%
  GI50: 160 nM
NCI-H23
  inhibition at 10 µM: > 100%
  GI50: 310 nM
NCI-H226
  inhibition at 10 µM: 88.6%
  GI50: 4330 nM
OVCAR-5
  inhibition at 10 µM: 55.9%
  GI50: 2120 nM
PC-3
  inhibition at 10 µM: 78.5%
  GI50: > 38800 nM
NCI-H522
  inhibition at 10 µM: > 100%
  GI50: 260 nM
SR
  inhibition at 10 µM: 75.2%
  GI50: 120 nM
OVCAR-3
  inhibition at 10 µM: > 100%
  GI50: 190 nM
SF-268
  inhibition at 10 µM: > 100%
  GI50: 840 nM
TK-10
  inhibition at 10 µM: 95%
  GI50: 5080 nM
HOP-92
  inhibition at 10 µM: > 100%
  GI50: > 38800 nM
UACC-62
  inhibition at 10 µM: 95.3%
  GI50: 1690 nM
HOP-62
  GI50: 840 nM
MOLT-4
  inhibition at 10 µM: 60.8%
  GI50: 280 nM
HT29
  inhibition at 10 µM: > 100%
  GI50: 1080 nM
HCC-2998
  inhibition at 10 µM: 78%
  GI50: 1380 nM
SF-539
  inhibition at 10 µM: > 100%
  GI50: 370 nM
U251
  inhibition at 10 µM: > 100%
  GI50: 830 nM
EKVX
  inhibition at 10 µM: 67.2%
  GI50: 9310 nM
RPMI-8226
  inhibition at 10 µM: 88.2%
  GI50: > 38800 nM
